ChEMBL document CHEMBL3758177, “Synthesis and biological evaluation of novel phosphoramidate derivatives of coumarin as chitin synthase inhibitors and antifungal agents” (Eur J Med Chem, 2016)

Test system: Candida albicans
Assay: Antifungal activity against Candida albicans CMCC 76615 after seven days by disc diffusion method
Type: functional

O=c1oc2ccccc2c(Cl)c1/C=N/c1nncs1
diameter of the inhibition zone (DIZ): 15 mm
